Experimental data reported in patent publication US6716628B2, “Chondrogenesis promoters and indolin-2-one derivatives” (Chugai Seiyaku Kabushiki Kaisha, priority 1999, dated 2004).

Legend:
[1] = system: healthy rats (auricula, trachea, sternum, femoral/crural knee joint, lumbar spine disk cartilage); experiment: Chondrogenesis promoting effect with oral administration to healthy rats; assay type: in vivo, rat; details: oral 2 g/kg/day for 4 weeks, 6-week-old male SD rats, vs 3% gum Arabic vehicle; histology
From the text: “Compound A” obtained in Synthesis Example 1 above was suspended in a 3% gum Arabic solution and orally administered to 6-week-old male SD rats (Nihon SLC Corp./Nihon Charles River Corp.) at a dosage of 2 g/kg/day for 4 weeks.
Each rat was then autopsied, the auricula, trachea, sternum, femoral/crural knee joint and lumbar spine (disk) were immersed for one week in 20% neutral buffer formalin (Wako Pure Chemical Industries, Co., Ltd.) and fixed, the sternum, femoral/crural knee joint and lumbar spine (disk) were then demineralized for 2 weeks with a 20% EDTA-4Na solution (pH 7.4, Wako Pure Chemical Industries), and observation sites were trimmed with a razor (Feather Co., Ltd.). Observation sites were trimmed from the auricula and trachea with a razor without demineralization.
Each of the trimmed tissue samples was prepared into a paraffin embedded block using an automatic embedding apparatus (Sakura Corp.) and paraffin (equivalent mixture of products by Kokusan Kagaku Corp. and Fisher Scientific Corp.). Here, a paraffin automatic dispensing embedding center (Miles Scientific Corp.) was used to fix each paraffin block in a tissue sample cassette (TISSUE-TEK Corp.)
The paraffin block was cut into 2 μm-thick sections using a microtome (Daiwa Optical Instruments Corp.) and microtome knife (Feather Co., Ltd.), and then attached onto slide glass (Matsunami Glass Corp.) and dried. […]

[2] = system: rat knee joints; experiment: Chondrogenesis promoting effect with administration into rat knee joints; assay type: in vivo; details: 1 mmol/L, 50 μL per day into right knee joint for 3 weeks
Protocol: A 27G injection needle and 1 mL syringe (both by Terumo Corp.) were used to administer 1 mmol/L of “compound A” (dissolved in 50% DMSO dimethylsulfoxide)-physiological saline solution; DMSO by Junsei Chemical Corp., physiological saline by Otsuka Pharmaceutical Corp.) into the right knee joint of 10-week-old male SD rats (Nihon Charles River Corp.) at a dosage of 50 μL per day for 3 weeks.
Another test group was administered 50% DMSO-physiological saline (by Junsei Chemical Corp. and Otsuka Pharmaceutical Corp., respectively) in the same manner as a vehicle control.
After 3 weeks of daily administration, the rats were autopsied, and the distance between lateral and medial attachment sites of collateral ligament of the right femur was measured with calipers (Mitsutoyo Corp.) to determine the width of the femoral knee joint. Then, in the same manner as Example 1, tissue samples were prepared and stained with 0.3% Safranin O (Merck Co., Ltd.) and observed under a microscope (magnification: 10× object lens, product of Nihon Kogaku Corp.).

[3] = system: rat primary culture articular chondrocytes; experiment: Uptake of 3H-labeled thymidine (cell growth); assay type: cell-based; details: 10 μmol/L of compound, vs control solvent
Protocol: Articular chondrocytes were trimmed from the femoral knee joint of 6-week-old male SD rats (Nihon SLC Corp.) using a scalpel, and then digested in 0.3% collagenase (WORTHINGTON Corp.) and cultivated (Calcif. Tissue Int. 19:179-187,1975).
Uptake of ^3H-labeled thymidine (Amersham Corp.) was measured to determine the cell growth. For the measurement, the isolated articular chondrocytes were cultured in a 96-well cell culturing plate (FALCON Corp.) to a cell density of 10,000 per well. The medium used was an equivalent mixture of Dulbecco MEM containing fetal bovine serum (final concentration: 10%), 100 U/mL of penicillin (Meiji Seika Co., Ltd.) and 100 μg/mL of streptomycin (Banyu Pharmaceutical Corp.), and Ham F-12 medium (both by GIBCO Corp.). After 60-70% of the cells reached confluency, the medium was exchanged with one having a fetal bovine serum concentration of 0.3% and culturing was carried out overnight. On the following day, the medium was exchanged with the same type also containing compound A at a final concentration of 0.1, 1.0 or 10 μmol/L and 0.3% fetal bovine serum. […] The filter paper was soaked with plastic scintillator (Wallac Corp.), and the radioactivity was measured with a scintillation counter (Wallac Corp.). […]

[4] = system: full thickness cartilage deficient rat models; experiment: Cartilage repair effect in full thickness cartilage deficient rat models; assay type: in vivo; details: 1.0 mmol/L, 50 μL intraarticular daily for 3 weeks from day 7 after operation
Protocol: A Kirschner wire with a 2.4 mm diameter (Mizuho Medical Instruments Corp.) was used to create a 2.5 mm-deep deficient area in the right femoral patellar surface, reaching to the marrow, in 10-week-old male CD rats (Nihon Charles River Co., Ltd.). From the seventh day after the operation, 50 μL of a 50% dimethylsulfoxide (DMSO) physiological saline solution as a solvent (DMSO: Junsei Chemical Corp.; physiological saline: Otsuka Pharmaceutical Corp.), or of a 1.0 mmol/L compound A solution, was administered into the right knee joint daily once a day for 3 weeks. The daily dosage of compound A was 81.7 μg.
On the day following the day of final administration, the right femur was taken, and fixed in 20% neutral buffered formaldehyde (Wako Pure Chemical Industries) for one week, and then demineralized for 2 weeks with 20% EDTA-4Na solution (pH 7.4, Wako Pure Chemical Industries), and the deficient area was trimmed with a razor (Feather Co., Ltd.). The trimmed area was subjected to paraffin blocking using an automatic embedding apparatus (Sakura Corp.) and paraffin (equivalent mixture of products by Kokusan Kagaku Corp. and Fisher Scientific Corp.). Here, a paraffin automatic dispensing embedding center (Miles Scientific Corp.) was used to fix each paraffin block in a tissue sample cassette (TISSUE-TEK Corp.)
Each paraffin block was cut into 2 μm-thick sections using a microtome (Daiwa Optical Instruments Corp.) and microtome knife (Feather Co., Ltd.), and then attached onto slide glass (Matsunami Glass Corp.) and dried. After drying, the sections were dipped in xylene to remove the paraffin, and then dipped in a step dilution series from ethanol to water and then stored in water. The sections were stained with 0.3% Safranin O (Merck Co.,.Ltd.) and observed with a microscope (magnification: 10× object lens), and a histological score was assigned according to a modification of the method of Wakitani et al. (J. Bone Joint Surg. 76-A, 579-592, 1994).

[5] = system: common mouse chondrocyte and adipocyte precursor cell line (CL-1); experiment: Uptake of 35S-labeled sulfuric acid into CL-1; assay type: cell-based; details: 10 μmol/L (A and F also 1 or 5 μmol/L), 48 h culture

CCOC(CN1C(=O)[C@](CC(=O)Nc2ccc(C)cc2)(NC(=O)Nc2ccc(C)cc2)c2ccccc21)OCC [Compound A, (+)-1-(2,2-diethoxyethyl)-3-((4-methylphenyl)aminocarbonylmethyl)-3-(N′-(4-methylphenyl)ureido)indolin-2-one]
hyaline cartilage formation (auricula, trachea, sternum, knee joint, lumbar spine disk) [1]: accelerated hyaline cartilage formation in all of the organs | femoral knee joint width ([2]; 10-week-old male SD rats, vs vehicle control): significantly larger | histological observation of femoral knee joint (Safranin O) ([2]; rats): Safranin O-positive accelerated formation of cartilage tissue | uptake of 3H-labeled thymidine [3]: significantly increased | repair of deficient areas (Safranin O staining) [4]: exhibited repair in the Safranin O-positive cartilaginous tissue | histological score: cell morphology ([4]; vs solvent alone): significant decrease | histological score: thickness of cartilage ([4]; vs solvent alone): significant decrease | histological total score ([4]; vs solvent alone): significant decrease | differentiation of CL-1 to adipocytes [5]: clearly suppress
